Results on two compounds are retold here after US12036212B2, “Enhancement of tumor response to chemotherapy by activation of the asmase/ceramide pathway through timed administration of a short-acting anti-angiogenic agent” (Memorial Sloan-Kettering Cancer Center, priority 2014, dated 2024).

The subject of one series is MCA/129 fibrosarcomas. Briefly: Endothelial apoptosis in vivo (TUNEL/MECA-32) in MCA/129 fibrosarcomas. On the set-up: species or system mice. Conditions: gemcitabine 240 mg/kg. On the procedure:
Human HCT-116 colon cancer cells and MCA/129 murine sarcoma cells were maintained in DMEM with 10% fetal bovine serum, with 100 u/ml penicillin and 100 μg/ml streptomycin. Cells were grown as monolayers in 75 cm^2 culture flasks at 37° C. in 10% CO2 humidified incubators. Cells were trypsinized, washed in PBS and diluted in Matrigel/PBS solution (40:60 v/v) for HCT-116 xenografts or in PBS for MCA/129 syngeneic tumor grafts. Cells (3×10^6 for HCT-116 or 1×10^6 for MCA129) were injected subcutaneously into the flanks of mice (Garcia-Barros et al. Science 300, 1155-1159, 2003).
To evaluate acute endothelial apoptosis, tumors were grown in mice and treated with drugs as above. After the first treatment, tumors were harvested at specified times, placed into formalin overnight and paraffin-embedded the next day. Paraffin-embedded sections (5 μm) were co-stained for apoptotic endothelium using TUNEL and the endothelial-specific monoclonal antibody MECA-32 (Developmental Studies Hybridoma Bank, developed under the auspices of the NICHD and maintained by The University of Iowa, IA).
Similar results were observed using MCA/129 murine fibrosarcoma tumors implanted in Sv129/Bl6^asmase+/+ mice. […] After 4 hours of treatment, tumors were harvested and endothelial cell apoptosis quantified.

The test system of another series is ASMase. Kind of series: ASMase activity radioenzymatic assay in BAEC. It is filed as cell-based, bovine. As to the method: BAEC were established from the intima of bovine aorta as described^1. Stock cultures were grown in 100-mm dishes in Dulbecco's modified Eagle's medium (DMEM) supplemented with glucose (1 g/liter), 5% heat-inactivated calf serum (CS), penicillin (50 units/ml), and streptomycin (50 μg/ml). Purified human recombinant bFGF (1 ng/ml; R&D Systems, Inc., Minneapolis, MN) was added every other day during the exponential growth phase. […] These plateau phase cells were either used for experiments, or further sub-cultured (up to a maximum of 10 times) at a split ratio of 1:8. For sub-culturing, monolayers were dissociated with STV (0.05% trypsin and 0.02% EDTA in PBS) for 2-3 min at 22° C., washed twice in 5% CS-DMEM, and resuspended in DMEM with supplements as above. These mild conditions of trypsinization were sufficient to detach cells but not injure, stimulate, or affect cell function in a detectable way. BAEC were maintained at 37° C. in 10% CO2 humidified incubators.
ASMase activity was quantified by radioenzymatic assay using [^14C-methylcholine]sphingomyelin (Amersham) as substrate as described (Schissel et al. J Biol Chem, 271, 18431-18436, 1996). Cell lysates were incubated with [^14C-methylcholine]-sphingomyelin substrate (0.026 mCi/9.5 nmol) in 250 mM sodium acetate, pH 5.0 supplemented with 0.1% Triton X-100 and 1 mM EDTA or 0.1 mM ZnCl. Reactions were terminated after 1 h with CHCl3:MeOH:1N HCl (100:100:1, v/v/v), and [^14C-methylcholine]phosphocholine product in the aqueous layer of the Folch extract was quantified using a Beckman Packard 2200 CA Tricarb scintillation counter. For detection of ASMase activity in patients, 10 μl of serum was used.
To test the effect of chemotherapy on ASMase signaling and ceramide production, BAEC were treated with paclitaxel (100 nM) and ASMase activity was determined by radioenzymatic assay (Rotolo et al, infra) using [^14C-methylcholine] sphingomyelin (Amersham) as substrate (FIG. 1A). Induction of ASMase activity was observed within 5 minutes after treatment, and the activation continued for 30 minutes. Ceramide generation was monitored using the diacylglycerol kinase assay (Stancevic et al. PLoS ONE 8, e69025, 2013). […] In further support of this, pre-incubation of BAEC with nystatin prior to treatment with chemotherapy inhibits chemotherapy-induced apoptosis (FIG. 3).
To determine the generality of the results observed, experiments were carried out using an additional endothelial cell line, human coronary artery endothelial cells (HCAEC); experiments were also performed using a different chemotherapeutic agent. […] Next, HCAEC were treated with paclitaxel (100 nM) (data not shown) and etoposide (50 μM) (FIG. 1F), and ceramide generation was evaluated.
To further establish the generality of ASMase activation by various chemotherapeutic agents, BAEC and HCAEC were treated with increasing doses of cisplatin (0.1-50 μM) (data not shown). […] The ASMase/ceramide pathway was activated by chemotherapeutic agents that belong to different classes of chemotherapeutic agents, such as: taxanes, topoisomerase inhibitors, and nucleoside analog metabolic inhibitors. Since such chemotherapy agents are characterized by distinct mechanisms of action in tumor cells, it is surprising that a group of such distinct agents converges on a common molecular (ASMase/ceramide) axis in endothelium. The present confirmation that distinct chemotherapeutic agents activate the ASMase/ceramide pathway permits the present inventors to take into account the results of experiments using single dose radiotherapy, which has been reported to activate the same pathway (Rao, S. S. et al., Axitinib sensitization of high Single Dose Radiotherapy. Radiotherapy and Oncology: Journal of the European Society for Therapeutic Radiology and Oncology 111, 88-93, doi:10.1016/j.radonc.2014.02.010 (2014)).
Gemcitabine was able to activate ASMase in cultured endothelial cells. […]

For series [1], the system named is MCA/129 fibrosarcoma tumors. Kind of series: IVIM MRI of vascular perfusion in MCA/129 fibrosarcoma tumors. The class given is in vivo, mouse. Conditions: gemcitabine 240 mg/kg i.p. The source says: IVIM DW-MRI was first described by Le Bihan et al. (MR imaging of intravoxel incoherent motions: application to diffusion and perfusion in neurologic disorders. Radiology 1986; 161: 401-407). The novelty of our approach lies in repeatedly acquiring IVIM data over time (e.g. “dynamic” IVIM) to monitor the acute effects of radiation (or chemotherapy), a strategy which has not been previously reported. No intravenous contrast administration is required, and IVIM parameters can be measured many times, allowing us to define kinetics of vascular dysfunction after radiation or chemotherapy. Other alternatives, such as DCE-MRI or ^15O-PET, would not serve our purpose as well: although they may be highly reflective of tissue vascularity they cannot be re-injected into a patient to serially monitor changes in vascularity over time. IVIM parameters including perfusion fraction (f), pseudo-diffusion coefficient (D*) and diffusion coefficient (D) were calculated for each lesion, using a biexponential signal decay model and incorporating a correction to account for differences in the T1 and T2 relaxation times of tissue and blood, respectively.
Briefly, MCA/129 fibrosarcoma tumors were implanted in the rear mouse hip, and subjected to intravoxel incoherent motion (IVIM) MRI when tumors reached a size of 150-300 mm^3. […] Data (mean±SEM) are collated from 6 animals per group.

For series [2], the system named is advanced soft tissue sarcoma. Briefly: Phase II trial of gemcitabine and docetaxel with bevacizumab, volumetric tumor response. The class given is in vivo, human. On the procedure:
Patients with metastatic or locally-recurrent leiomyosarcoma, pleomorphic undifferentiated sarcoma, pleomorphic liposarcoma, rhabdomyosarcoma or angiosarcoma, were treated on a phase II trial of gemcitabine, docetaxel and bevacizumab. Initially the trial was a double-blind, placebo-controlled, randomized trial of gemcitabine and docetaxel with or without bevacizumab, which was modified to a single-arm, open-label, non-randomized study of gemcitabine, docetaxel and bevacizumab. The protocol was approved by the Institutional Review Board of Memorial-Sloan Kettering Cancer Center, and all patients provided written informed consent (Clinicaltrials.gov identifier NCT00887809).
Initially, gemcitabine was administered immediately following bevacizumab.
Volumetric measurement of tumors was performed on an exploratory basis as the original study was not designed or powered to specifically investigate the clinical application of timed anti-angiogenic therapy as a method of tumor chemosensitization. In light of the results from our animal studies, which were made part way through the clinical study period, volumetric measurements were proposed to more ideally facilitate comparison with our pre-clinical data. Furthermore, they likely provide a more meaningful assessment of tumor response than the RECIST based evaluation for soft tissue sarcoma. […] Baseline CT or MRI was used to identify a dominant target lesion for measurement. Follow-up scans were evaluated for best response. Tumor contours were defined manually and summed across all axial slices to calculate a total volume measurement. Tumor response was defined as at least a 30% reduction in tumor volume. Both a two-tailed Fisher's Exact Test and the Mann-Whitney Rank-Sum test were employed to evaluate significance in patient volumetric response rates at the first interval treatment scan (week 6) and at time of maximum treatment response.
Patients enrolled in the trial had metastatic or recurrent leiomyosarcoma, pleomorphic undifferentiated sarcoma, pleomorphic liposarcoma, rhabdomyosarcoma or angiosarcoma (FIG. 7A).
A total of 38 patients were treated. A subset of patients received placebo instead of bevacizumab. […] Baseline CT scan or MRI was used to identify a dominant target lesion for volumetric measurement, followed by volumetric assessment on initial post-treatment follow-up scan ([…]) and over the treatment course (representative CT time course of abdominal metastasis is shown in FIG. 7B showing regression of metastatic tumor).

For series [3] the following is noted: human, in vivo; cited from earlier work.

Take `Nc1ccn([C@@H]2O[C@H](CO)[C@@H](O)C2(F)F)c(=O)n1` [gemcitabine]: in the series on MCA/129 fibrosarcomas (Sv129/BL6 asmase+/+), the Endothelial cell apoptosis entry is “induced time-dependent endothelial cell apoptosis”. Moreover, the Tumor cell apoptosis result in the series with MCA/129 fibrosarcomas is reported as “did not cause tumor cell apoptosis”. In the series on ASMase (etoposide 50 μM, cisplatin 0.1-50 μM, gemcitabine 100 nM time-course), the ASMase activation result was “triggered rapid cellular activation of ASMase”. Moreover, the “Dose dependence of ASMase activation” value in the series with ASMase (increasing doses of gemcitabine, 5 minutes) is recorded as “dose-dependent manner”. Besides, the “Time of peak vascularity and diffusion reduction after treatment” value in series [1] was in the range of 15 to 30 min. In addition, in series [1] (over 1 hour), the “Diffusion (D*)” value is “reduced in a reversible manner” and the “Vascularity (Fp)” value is recorded as “reduced in a reversible manner”.

As to “bevacizumab: monoclonal antibody that targets circulating VEGF A, long-acting AAA”, in series [2] (after two 3-week cycles, bevacizumab-gemcitabine 1-hour interval, 14 patients), the “Patients with >30% tumor reduction, initial follow-up scan” value is 64%. Moreover, the “Patients with significant tumor response (≥30% reduction in tumor volume), initial follow-up scan” value in series [2] (after two 3-week cycles, immediate consecutive bevacizumab-gemcitabine, 16 patients) came out at 25%. Besides, in series [2] (bevacizumab 15 mg/kg 1 hour prior to gemcitabine, docetaxel day 8, 14 patients), the “Patients with significant tumor response, best response” value was determined as 93%. Moreover, the “Patients with significant tumor response (>30% reduction in tumor volume), best response” value in series [2] (bevacizumab 15 mg/kg immediately before gemcitabine, docetaxel day 8, 16 patients) amounted to 38%. The “Half-life (t1/2)” value in series [3] is given as 21 days.
